The compounds below were run against T1, Ribosyldihydronicotinamide dehydrogenase [quinone] (Homo sapiens, UniProt P16083) (assay: Fluorescence Titration Assay).
T1 sequence (P16083 whole entry): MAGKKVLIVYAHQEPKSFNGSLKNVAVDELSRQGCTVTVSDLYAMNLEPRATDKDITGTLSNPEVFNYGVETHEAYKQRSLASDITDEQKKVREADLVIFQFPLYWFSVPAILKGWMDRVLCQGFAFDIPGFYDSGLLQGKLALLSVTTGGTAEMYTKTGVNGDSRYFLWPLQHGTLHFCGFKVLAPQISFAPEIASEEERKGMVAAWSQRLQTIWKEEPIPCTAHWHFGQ
Protocol: To assess direct binding of inhibitors to oxidized NQO2 (NQO2ox), fluorescence quenching of FAD was monitored with an excitation wavelength of 350 nm and an emission wavelength of 430 nm. NQO2 (775 or 38.75 nM) was titrated with the indicated concentrations of TBB, TBBz, and DMAT.

SMILES	Kd [µM]
Brc1c(Br)c(Br)c2[nH]cnc2c1Br [4,5,6,7-tetrabromo-1H-benzimidazole]	0.0181
Brc1c(Br)c(Br)c2[nH]nnc2c1Br	7.11
CN(C)c1nc2c(Br)c(Br)c(Br)c(Br)c2[nH]1 [2-(dimethylamino)-4,5,6,7-tetrabromo-1H-benzimidazole]	0.0364

These compounds were tested against T1, Ribosyldihydronicotinamide dehydrogenase [quinone] (assay: Inhibition of Steady-State Catalysis Assay).
Protocol: To determine the IC50 value of each inhibitor, reactions were initiated by addition of 154 pM NQO2 to a reaction buffer containing 150 μM SCDP and 5 μM menadione with TBB (0.625−640 μM), TBBz (2.5−640 nM), or DMAT (2.5−640 nM).

SMILES	IC50 [µM]
Brc1c(Br)c(Br)c2[nH]cnc2c1Br [4,5,6,7-tetrabromo-1H-benzimidazole]	0.0794
Brc1c(Br)c(Br)c2[nH]nnc2c1Br	12.8
CN(C)c1nc2c(Br)c(Br)c(Br)c(Br)c2[nH]1 [2-(dimethylamino)-4,5,6,7-tetrabromo-1H-benzimidazole]	0.484

— BindingDB's records for doi:10.1021/bi500959t (University of Western Ontario, 2015)
